Literature values in patent US12597519B2, “Methods for characterizing and treating a cancer type using cancer images” (TESARO, INC., priority 2019, dated 2026).

Tests used:
[1] = system: cancer cell lines silenced for BRCA-1 or BRCA-2, or carrying BRCA-1 or BRCA-2 mutations; conditions: BRCA-defective cells
[2] = system: platinum-sensitive relapsed ovarian cancer

Structure (SMILES)	mechanism of antiproliferative activity [1]	overall survival benefit ([2]; interim analysis, intent to treat populations)	outcome in subset of patients who had BRCA mutations ([2]; planned analysis, BRCA mutation subset)
Cc1ccc(S(=O)(=O)O)cc1.NC(=O)c1cccc2cn(-c3ccc([C@@H]4CCCNC4)cc3)nc12 [Niraparib, (3S)-3-[4-{7-(aminocarbonyl)-2H-indazol-2-yl}phenyl]piperidine]	cell cycle arrest in G2/M followed by apoptosis		
O=C(c1cc(Cc2n[nH]c(=O)c3ccccc23)ccc1F)N1CCN(C(=O)C2CC2)CC1 [olaparib, 4-[(3-{[4-(cyclopropylcarbonyl)piperazin-1-yl]carbonyl}-4-fluorophenyl)methyl]phthalazin-1(2H)-one]		unlikely to translate into an overall survival benefit	clear advantage
